Measured values as given in patent EP4759810A1, “PROTAC TARGETING BCL-XL PROTEIN AND USE THEREOF” (BEIJING SUNCELL BIO-MEDICAL CO., LTD., priority 2023, dated 2025).
Read-outs that look alike come from different tables or passages of the source.

Tests used:
[1] = test system: HEF cells; test: Senescent cell killing activity test, HEF cell model (CCK-8); assay type: cell-based, human; conditions: for toxicity on normal non-senescent HEF cells: higher concentration (25 µM)
Experimental: (§1) To avoid replication of the induced senescent cells, low-passage proliferating HEF cells (<10 passages), MRC5 cells (<6 passages), and BJ cells (<10 passages) were used as normal controls. For chemical drug induced senescence, HEF cells were treated with 10 µM etoposide (Selleck, S1225) for 36-48 hours, MRC5 cells were treated with 5 µM bleomycin (Selleck, S1225) for 72 hours, and BJ cells were treated with 10 µg/mL bleomycin for 72 hours. Three days after the treatment, the cells were subcultured in fresh culture medium at a 1:3 ratio for 72 hours before further analysis and use.
(§2) Non-senescent and induced-senescent HEF cells, non-senescent and induced-senescent MRC5 cells, and non-senescent and induced-senescent BJ cells were respectively digested with trypsin, and centrifuged at 1000 rpm for 5 minutes. Then, the supernatant was removed, and the cells were resuspended in fresh DMEM culture medium containing 10% fetal bovine serum for counting. The cell density was adjusted so that the non-senescent cell density was 4000 cells/100 µL and the senescent cell density was 7000 cells/100 µL. 100 µL of the cell suspension was added to each well of a 96-well transparent cell culture plate. It was noted that the edge wells of the 96-well plate were not used as testing wells, and 300 µL of PBS alone was added to these wells to reduce evaporation of the culture medium. The 96-well plates with the well-plated cells were placed back in a 37°C incubator for overnight culture until the cells adhered. On the next day, the small molecule compounds to be tested were prepared and added after the cells had adhered.
(§3) A series of small molecule concentration gradients (0.01, 0.03, 0.1, 0.3, 1, 3, 10, and 25 µM) were pre-set, and a series of 2× drug dilutions for the above concentrations were prepared in DMEM culture medium containing 10% fetal bovine serum. 100 µL of the above DMEM culture medium containing the gradient concentrations of the drug was added to each well of the 96-well plate that had been well-plated with cells, so that the final drug concentration in each well was the pre-set series of concentrations. Three replicate wells were used for each test drug concentration. The 96-well plates were placed back in a 37°C incubator, and cell viability was measured after three days.
(§4) Three days after adding the drug, the plates were taken out, and the supernatant was discarded. 100 µL of pre-prepared CCK-8 working solution was added to each well. The CCK-8 working solution was obtained through diluting a CCK-8 stock solution (C0041, Beyotime) with a serum-free DMEM culture medium by 10-fold volumn. The 96-well plates containing the CCK-8 working solution were placed back in the 37°C incubator and incubated for 0.5-2 hours. The plates were then taken out, and the absorbance value (OD value) of each well was measured at a wavelength of 450 nm. The cell viability in each experimental group was calculated according to the following formula: Relative cell viability (%) = (Blank control group - Experimental group) / Blank control group × 100%.

[2] = test system: platelets; test: In vivo platelet toxicity test in mice; conditions: intraperitoneal
Experimental: The in vivo platelet toxicity test was performed by using 5-6 week old female C57BL/6J mice. The C57BL/6J mice were purchased from Beijing Vital River Laboratory Animal Technology Co., Ltd. and housed under specific pathogen-free (SPF) conditions, with a 12-hour light/12-hour dark cycle, and free access to food and water. […] Different doses of the molecules to be tested (e.g., 0.1, 0.5, 2.5 mg/kg or 2, 5, 20 mg/kg) were prepared in advance with the aforementioned vehicle, and administered to mice via intraperitoneal injection at a volume of 200 µL for each mouse. After administration was completed, approximately 50 µL of blood was collected from each mouse at different time points via the intra-canthus sampling method into EDTA anticoagulant tubes (RAM Scientific), then a routine analysis of blood was performed by using a hematology analyzer, and the platelets was counted.

[3] = target: T1, Bcl-xL protein (Homo sapiens, UniProt Q07817); test: Degradation experiment of Bcl-xL target protein (Western blot in Molt-4 cells); assay type: cell-based; conditions: 100 nM, 0, 2, 6, 16 h, GAPDH internal control, Figure 4
T1 construct: host or cells: Molt-4 cells
Experimental: Actively growing and healthy Molt-4 cells were subcultured into a fresh RPMI-1640 medium containing 10% fetal bovine serum, and each PROTAC molecule was added thereto at a final concentration of 100 nM. After drug treatment for the specified times (0, 2, 6, and 16 hours), the cells were collected, the supernatant was discarded by centrifugation, and the cells were washed twice with pre-cooled PBS buffer. Total protein was extracted with a lysis buffer (Servicebio, G2002-100ML), and the protein concentration was normalized by using a BCA protein quantification kit (Servicebio, G2026). Protein samples were mixed with a protein-loading buffer and incubated at 95°C for 5 minutes. Western blotting experiments were performed by using the following antibodies: Bcl-xL (Abcam, catalog number ab32370), diluted at 1:500; GAPDH antibody (Servicebio, catalog number GB15004), diluted at 1:1000; and horseradish peroxidase-conjugated goat anti-rabbit secondary antibody (Servicebio, catalog number GB23303), diluted at 1:5000.

[4] = test system: Molt-4 cells; test: Molt-4 cell killing activity test (CCK-8); assay type: cell-based; conditions: for killing Molt-4 cells at different concentrations (Figure 1), in words: 0.001-3 µM, comparison with control molecules; for EC50: Homo sapiens
How it was run: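 Molt-4 cells in RPMI-1640 with 10% FBS were exposed to compounds at 0.001–3 µM final, triplicate wells, for three days at 37°C. Viability was read by CCK-8 absorbance at 450 nm after 0.5–2 h, expressed relative to blank control.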

[5] = test system: MRC5 cells; test: Senescent cell killing activity test, MRC5 cell model (CCK-8); assay type: cell-based, human; conditions: for activity for killing senescent cells at lower concentrations compared to A-1331852: 0.01 µM and 0.03 µM; for selectivity for senescent cells: Figures 3G-3L
Experimental: as §1, §2, §3, §4

[6] = test system: Molt-4 cells; test: Detection of E3 enzyme-dependence: Molt-4 cell killing with or without pomalidomide (CCK-8); assay type: cell-based; conditions: 10 µM pomalidomide, Figure 2
Experimental: Actively growing and healthy Molt-4 cells were collected, centrifuged at 1000 rpm for 5 minutes, and after removing the supernatant, the cells were resuspended in fresh RPMI-1640 medium containing 10% fetal bovine serum. Cell counting was then performed. The cell density was adjusted to 120,000 cells per milliliter, and 100 µL of the cell suspension was added to each well of a 96-well transparent cell culture plate. It was noted that the edge wells of the 96-well plate were not used for testing, and 300 µL of PBS alone was added to these wells to reduce medium evaporation.
Molt-4 cells were plated in duplicate according to the number of the tested small molecules, so as to test the effects with and without the addition of pomalidomide (a competitive ligand specific for E3 ligase), in which one half of the parallel cells was added 10 µM pomalidomide. A series of small molecule concentration gradients (0.001, 0.003, 0.01, 0.03, 0.1, 0.3, 1, and 3 µM) were pre-set, and a series of 2× drug dilutions for the above concentrated were prepared in DMEM medium containing 10% fetal bovine serum. 100 µL of the above DMEM medium containing the gradient concentrations of the drug was added to 96-well plates that have been pre-plated with cells, so that the final drug concentration in each well was the pre-set series of concentrations respectively. Three replicate wells were used for each test drug concentration. The 96-well plates were placed back in a 37°C incubator, and the cell viability was detected after three days.
Cell viability after drug treatment was detected by using the CCK-8 method: three days after adding the drugs, the plates were taken out, and the supernatant was discarded. Then, 100 µL of pre-prepared CCK-8 working solution was added to each well. The CCK-8 working solution was obtained through diluting a CCK-8 stock solution (C0041, Beyotime) by 10-fold volumn with a serum-free DMEM culture medium. The 96-well plates with the added CCK-8 working solution were placed back in the 37°C incubator and incubated for 0.5-2 hours. The plates were then taken out, and the absorbance value (OD value) of each well was measured at a wavelength of 450 nm. The cell viability in each experimental group was calculated according to the following formula: Relative cell viability (%) = (Blank control group - Experimental group) / Blank control group × 100%.

[7] = test system: BJ cells; test: Senescent cell killing activity test, BJ cell model (CCK-8); assay type: cell-based, human; conditions: Figures 3M-3O; for killing effects for senescent cells: bleomycin-induced senescent skin-derived BJ cell model
Experimental: as §1, §2, §3, §4

[8] = Metabolic stability assay in liver microsomes (human); assay type: in vitro ADME
Experimental: (§5) The metabolic reaction of compounds in liver microsome was performed in a system with a total volume of 400 µL, and the following steps below were sequentially performed for the reaction and detection: 1) 200 µL of phosphate buffer (200 mM), 106 µL of sterile ultrapure water, and 40 µL of magnesium chloride solution (50 mM) were added to each detection tube to prepare a reaction working solution. 2) Two reaction systems with or without adding NADPH were prepared for each compound to be tested. For the reaction system with adding NADPH: 10 µL of liver microsomes (20 mg/mL) and 40 µL of NADPH (10 mM) were added to the above working solution; for the reaction system without adding NADPH: 10 µL of liver microsomes (20 mg/mL) and 40 µL of sterile ultrapure water were added to the above working solution. The final concentration of liver microsomes in both reaction systems was 0.5 mg/mL. 3) 4 µL of the compound to be tested ([…]) was added to each reaction tube, resulting in a final concentration of 1 µM for the compound in the reaction system. The detection tubes were placed at 37°C for reaction. 4) 50 µL samples were taken from each detection tube at 0, 15, 30, 45, and 60 minutes after adding the compound. The reaction was terminated by adding cold acetonitrile containing IS (100 nM alprazolam, 200 nM labetalol, 200 nM caffeine, and 2 µM ketoprofen) in a 4× volume. The samples were centrifuged at 3220 g for 40 minutes, 100 µL of the supernatant was mixed with 100 µL of ultrapure water, and a sample was taken for LC-MS/MS analysis.
(§6) Calculation of in vitro liver microsomal metabolic half-life and in vitro metabolic intrinsic clearance rate: The LC-MS detection results were analyzed to obtain the percentage of the remaining amount of the tested compound relative to the initial amount at each time point. The natural logarithm of the remaining percentage was linearly fitted against the incubation time.

[9] = Metabolic stability assay in liver microsomes (mouse); assay type: in vitro ADME
Experimental: as §5, §6

[10] = 72 h, Molt-4 cells, three days, CCK-8, read-out: EC50 (Molt-4)
[11] = Bcl-xL-positive Molt-4 cells, read-out: cellular activity / killing activity (Molt-4 cells)
[12] = human liver microsomes 0.5 mg/mL, 1 µM compound, 37°C
[13] = mouse liver microsomes 0.5 mg/mL, 1 µM compound, 37°C

T1 sequence (Q07817 whole entry): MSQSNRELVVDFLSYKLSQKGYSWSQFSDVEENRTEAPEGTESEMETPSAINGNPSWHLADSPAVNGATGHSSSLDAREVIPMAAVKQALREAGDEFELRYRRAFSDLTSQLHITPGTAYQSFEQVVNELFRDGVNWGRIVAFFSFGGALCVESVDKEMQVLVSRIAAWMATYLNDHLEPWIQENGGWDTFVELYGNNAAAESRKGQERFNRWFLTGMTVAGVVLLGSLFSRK

| Structure (SMILES) | toxicity on normal non-senescent HEF cells [1] | degradation of the Bcl-xL protein [3] | killing Molt-4 cells at different concentrations (Figure 1), in words [4] | EC50 [4, 10] [nM] | EC50 [4, 11] [nM] | activity for killing senescent cells at lower concentrations compared to A-1331852 [5] | selectivity for senescent cells [5] | cell killing activity after addition of pomalidomide (+poma) compared to without (-poma) [6] | killing effects for senescent cells [7] | killing effect for the normal early-passage BJ cells [7] | further results |
| --- | --- | --- | --- | --- | --- | --- | --- | --- | --- | --- | --- |
| O=C1CCN(c2ccc(N3CCN(CC#Cc4ccc(OCCCc5ccc(N6CCc7cccc(C(=O)Nc8nc9ccccc9s8)c7C6)nc5C(=O)O)c(F)c4)CC3)cc2)C(=O)N1 [APQ9] | no toxicity on normal non-senescent HEF cells | had the ability to degrade the Bcl-xL protein | comparable to A-1331852 | < 10 | < 10 | superior to that of A-1331852 | better selectivity for senescent cells | significantly reduced cell killing activity | – | – | activity for killing senescent cells at lower concentrations compared to A-1331852 ([1]; HEF cell model, 0.01 µM and 0.03 µM): better activity for killing senescent cells at lower concentrations; killing senescent HEF cells ([1]; etoposide-induced senescent vs normal HEF cells, Figures 3A-3F): efficiently and selectively kill senescent HEF cells; platelet number in peripheral blood, in words ([2]; 5 mg/kg, Figure 5B): slightly decrease in platelet number |
| O=C1CCN(c2ccc(N3CCC(CN4CCN(CC#Cc5ccc(OCCCc6ccc(N7CCc8cccc(C(=O)Nc9nc%10ccccc%10s9)c8C7)nc6C(=O)O)c(F)c5)CC4)CC3)cc2F)C(=O)N1 [APQ10-3] | – | – | comparable to A-1331852 | < 10 | < 10 | – | – | – | highly selective and potent killing effects for senescent cells | without significant killing effect for the normal early-passage BJ cells | – |
| O=C1CCN(c2ccc(N3CCN(CC#Cc4ccc(OCCCc5ccc(N6CCc7cccc(C(=O)Nc8nc9ccccc9s8)c7C6)nc5C(=O)O)c(F)c4)CC3)cc2F)C(=O)N1 [APQ902] | – | had the ability to degrade the Bcl-xL protein | comparable to A-1331852 | < 10 | < 10 | superior to that of A-1331852 | better selectivity for senescent cells | significantly reduced cell killing activity | highly selective and potent killing effects for senescent cells | without significant killing effect for the normal early-passage BJ cells | – |
| Cc1c(-c2ccc(N3CCc4cccc(C(=O)Nc5nc6ccccc6s5)c4C3)nc2C(=O)O)cnn1CC12CC3CC(CC(C3)C1)C2 [Compound A-1331852, A-1331852, reference compound] | toxic killing effects on normal non-senescent HEF cells | – | highest cellular activity in the test | < 10 | – | – | – | – | – | – | clearance rate (metabolic clearance rate) ([8]; human liver microsomes): 53.07 µL/min/mg; Clint [8, 12]: 53.07 µL/min/mg protein; T1/2 [8, 12]: 26.12 min; clearance rate (metabolic clearance rate) ([9]; mouse liver microsomes): 18.43 µL/min/mg; Clint [9, 13]: 18.43 µL/min/mg protein; T1/2 [9, 13]: 75.21 min; toxicity on platelets ([2]; 0.5 mg/kg, Figure 5A): severe toxicity on platelets; platelet number in peripheral blood ([2]; 5 mg/kg, Figure 5B): below 100 × 10^9/L |
